Where “and” joins values, the source holds several entries; their conditions need not be identical. Identical values can stand only once.
Assay: xn = mol fraction of the nth substance listed

CS(C)=O + CN(C)C=O
Conditions	viscosity [mPa·s]
298 K, 101.3 kPa, x1 = 0.1668	0.924
298 K, 101.3 kPa, x1 = 0.3195	1.036
298 K, 101.3 kPa, x1 = 0.5201	1.242
298 K, 101.3 kPa, x1 = 0.6689	1.474
298 K, 101.3 kPa, x1 = 0.8514	1.785
298.15 K, 101 kPa, x1 = 0.1077	0.89
298.15 K, 101 kPa, x1 = 0.2134	0.99
298.15 K, 101 kPa, x1 = 0.4199	1.11
298.15 K, 101 kPa, x1 = 0.5205	1.24
298.15 K, 101 kPa, x1 = 0.6195	1.37
298.15 K, 101 kPa, x1 = 0.8128	1.61
298.15 K, 101 kPa, x1 = 0.9071	1.78
303.15 K, 101 kPa, x2 = 0.1	1.617
303.15 K, 101 kPa, x2 = 0.2	1.466
303.15 K, 101 kPa, x2 = 0.3	1.331
303.15 K, 101 kPa, x2 = 0.4001	1.228
303.15 K, 101 kPa, x2 = 0.5002	1.109
303.15 K, 101 kPa, x2 = 0.6001	1.025
303.15 K, 101 kPa, x2 = 0.7001	0.952
303.15 K, 101 kPa, x2 = 0.8	0.877
303.15 K, 101 kPa, x2 = 0.9	0.814
313.15 K, 101 kPa, x2 = 0.1	1.365
313.15 K, 101 kPa, x2 = 0.2	1.248
313.15 K, 101 kPa, x2 = 0.3	1.141
313.15 K, 101 kPa, x2 = 0.4001	1.057
313.15 K, 101 kPa, x2 = 0.5002	0.969
313.15 K, 101 kPa, x2 = 0.6001	0.9
313.15 K, 101 kPa, x2 = 0.7001	0.839
313.15 K, 101 kPa, x2 = 0.8	0.775
313.15 K, 101 kPa, x2 = 0.9	0.724
318 K, 101.3 kPa, x1 = 0.159	0.7095
318 K, 101.3 kPa, x1 = 0.3184	0.7948
318 K, 101.3 kPa, x1 = 0.521	0.9101
318 K, 101.3 kPa, x1 = 0.6667	1.032
318 K, 101.3 kPa, x1 = 0.8614	1.226
323.15 K, 101 kPa, x2 = 0.1	1.17
323.15 K, 101 kPa, x2 = 0.2	1.075
323.15 K, 101 kPa, x2 = 0.3	0.99
323.15 K, 101 kPa, x2 = 0.4001	0.922
323.15 K, 101 kPa, x2 = 0.5002	0.85
323.15 K, 101 kPa, x2 = 0.6001	0.792
323.15 K, 101 kPa, x2 = 0.7001	0.74
323.15 K, 101 kPa, x2 = 0.8	0.69
323.15 K, 101 kPa, x2 = 0.9	0.647

CCN(CC)CCO + O=C1CCCCC1
viscosity [mPa·s], 101 kPa
Conditions	298.15 K	308.15 K	318.15 K
x2 = 0.0501	3.267	2.46	1.885
x2 = 0.1004	3.133	2.336	1.766
x2 = 0.15	3.002	2.228	1.663
x2 = 0.2	2.878	2.126	1.564
x2 = 0.3002	2.662	1.939	1.417
x2 = 0.4	2.49	1.799	1.309
x2 = 0.5	2.344	1.703	1.24
x2 = 0.5999	2.234	1.647	1.224
x2 = 0.6503	2.191	1.639	1.229
x2 = 0.6995	2.159	1.639	1.249
x2 = 0.7997	2.127	1.663	1.306
x2 = 0.8997	2.121	1.717	1.389
x2 = 0.9497	2.133	1.747	1.443

OC1CCCCC1 + CS(C)=O
303.15 K, 101 kPa
Conditions	viscosity [mPa·s]
x2 = 0.1009	20.83
x2 = 0.1821	12.4
x2 = 0.2727	7.835
x2 = 0.373	5.386
x2 = 0.4703	4.069
x2 = 0.5678	3.265
x2 = 0.6724	2.732
x2 = 0.791	2.203
x2 = 0.8922	2.015

CCCCCCCCCC + CCCCCCC
Conditions	viscosity
293.15 K, 100 kPa, x1 = 0.3	0.506 mPa·s
293.15 K, 101.33 kPa, x2 = 0.321	0.725 mPa·s
293.15 K, 101.33 kPa, x2 = 0.587	0.584 mPa·s
293.15 K, 101.33 kPa, x2 = 0.81	0.489 mPa·s
294.62 K, 101.3 kPa, x2 = 0.49	0.64 mPa·s
298.15 K, 101.33 kPa, x2 = 0.0985	0.8051 mPa·s
298.15 K, 101.33 kPa, x2 = 0.2017	0.745 mPa·s
298.15 K, 101.33 kPa, x2 = 0.3053	0.6806 mPa·s
298.15 K, 101.33 kPa, x2 = 0.4073	0.6363 mPa·s
298.15 K, 101.33 kPa, x2 = 0.5076	0.5891 mPa·s
298.15 K, 101.33 kPa, x2 = 0.6069	0.5466 mPa·s
298.15 K, 101.33 kPa, x2 = 0.7083	0.4983 mPa·s
298.15 K, 101.33 kPa, x2 = 0.8023	0.4575 mPa·s
298.15 K, 101.33 kPa, x2 = 0.903	0.4242 mPa·s
303.11 K, 100 kPa, x2 = 0.77	0.4628 mPa·s and 0.4626 mPa·s
303.15 K, 101.3 kPa, x2 = 0.77	0.4628 mPa·s
303.17 K, 100 kPa, x2 = 0.49	0.5761 mPa·s and 0.5762 mPa·s
303.17 K, 101.3 kPa, x2 = 0.49	0.5761 mPa·s
313.11 K, 101.3 kPa, x2 = 0.49	0.5111 mPa·s
313.15 K, 100 kPa, x1 = 0.3	0.393 mPa·s
313.18 K, 101.3 kPa, x2 = 0.77	0.4127 mPa·s
323.15 K, 100 kPa, x2 = 0.49	0.4588 mPa·s
323.15 K, 101.3 kPa, x2 = 0.49	0.4588 mPa·s

CCC(N)=O + O
298.15 K, 101 kPa
Conditions	viscosity [mPa·s]
x1 = 0.003097	0.919
x1 = 0.0145	1.025
x1 = 0.03165	1.188
x1 = 0.06563	1.536
x1 = 0.1487	3.03
x1 = 0.3724	5.98

OC1CCCCC1 + OC1CCCC1
viscosity [mPa·s], 100 kPa
Conditions	x2 = 0.1	x2 = 0.3	x2 = 0.5	x2 = 0.7	x2 = 0.9
303.15 K	34.92	23.18	16.54	12.51	9.2
308.15 K	27.86	19.17	13.78	10.67	7.88
313.15 K	21.32	15.13	11.11	8.78	6.57
318.16 K	16.48	11.96	9.04	7.2	5.49

CCOC(=O)C(C)O (stereo not given) + CCC(C)=O
101 kPa
Conditions	viscosity [mPa·s]
298.15 K, x1 = 0.6999	1.375
308.15 K, x1 = 0.8	1.345
308.15 K, x1 = 0.9001	1.595
318.15 K, x1 = 0.1999	0.4415
